The target in assay [1] is T1, Sentrin-specific protease 8 (Homo sapiens, UniProt Q96LD8).
T1 sequence (Q96LD8 whole entry): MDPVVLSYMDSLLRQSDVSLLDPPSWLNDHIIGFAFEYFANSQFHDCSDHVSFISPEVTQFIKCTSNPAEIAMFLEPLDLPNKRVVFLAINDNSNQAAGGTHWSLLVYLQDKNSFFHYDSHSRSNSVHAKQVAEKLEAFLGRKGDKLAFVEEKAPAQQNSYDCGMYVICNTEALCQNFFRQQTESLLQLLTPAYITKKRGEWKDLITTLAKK
The format is functional.

Assay [2] addresses T2, Replicative DNA helicase DnaB (Mycobacterium tuberculosis, UniProt P9WMR3).
T2 sequence (P9WMR3 whole entry): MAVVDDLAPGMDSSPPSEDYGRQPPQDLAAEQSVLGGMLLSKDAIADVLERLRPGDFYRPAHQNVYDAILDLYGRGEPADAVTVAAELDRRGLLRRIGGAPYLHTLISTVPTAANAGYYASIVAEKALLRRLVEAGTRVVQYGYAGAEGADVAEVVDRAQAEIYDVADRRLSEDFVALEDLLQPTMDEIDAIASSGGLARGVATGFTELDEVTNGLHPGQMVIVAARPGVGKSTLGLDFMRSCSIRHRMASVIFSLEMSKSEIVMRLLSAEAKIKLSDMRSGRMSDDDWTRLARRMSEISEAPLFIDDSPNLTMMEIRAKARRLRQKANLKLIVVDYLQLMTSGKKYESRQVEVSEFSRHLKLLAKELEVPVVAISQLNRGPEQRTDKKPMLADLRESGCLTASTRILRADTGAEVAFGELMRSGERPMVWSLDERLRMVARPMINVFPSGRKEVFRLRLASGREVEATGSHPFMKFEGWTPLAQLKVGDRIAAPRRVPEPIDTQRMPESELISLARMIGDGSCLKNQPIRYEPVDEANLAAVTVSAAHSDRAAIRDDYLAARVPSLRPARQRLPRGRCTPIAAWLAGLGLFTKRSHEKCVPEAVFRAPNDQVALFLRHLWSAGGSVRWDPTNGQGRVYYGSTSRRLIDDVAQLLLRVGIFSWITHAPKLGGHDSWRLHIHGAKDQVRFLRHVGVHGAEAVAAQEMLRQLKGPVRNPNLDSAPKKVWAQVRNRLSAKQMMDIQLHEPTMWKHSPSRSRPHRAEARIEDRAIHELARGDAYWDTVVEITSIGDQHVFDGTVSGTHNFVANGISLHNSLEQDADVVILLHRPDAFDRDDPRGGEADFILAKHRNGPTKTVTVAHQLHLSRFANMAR
As to the kind of experiment: DnaB intein splicing inhibitors, dose response, biochemical, cell-free fluorescence (AID 449749). The format is functional.

The next assay deals with T3, Protein RecA (Mycobacterium tuberculosis, UniProt P9WHJ3).
T3 sequence (P9WHJ3 whole entry): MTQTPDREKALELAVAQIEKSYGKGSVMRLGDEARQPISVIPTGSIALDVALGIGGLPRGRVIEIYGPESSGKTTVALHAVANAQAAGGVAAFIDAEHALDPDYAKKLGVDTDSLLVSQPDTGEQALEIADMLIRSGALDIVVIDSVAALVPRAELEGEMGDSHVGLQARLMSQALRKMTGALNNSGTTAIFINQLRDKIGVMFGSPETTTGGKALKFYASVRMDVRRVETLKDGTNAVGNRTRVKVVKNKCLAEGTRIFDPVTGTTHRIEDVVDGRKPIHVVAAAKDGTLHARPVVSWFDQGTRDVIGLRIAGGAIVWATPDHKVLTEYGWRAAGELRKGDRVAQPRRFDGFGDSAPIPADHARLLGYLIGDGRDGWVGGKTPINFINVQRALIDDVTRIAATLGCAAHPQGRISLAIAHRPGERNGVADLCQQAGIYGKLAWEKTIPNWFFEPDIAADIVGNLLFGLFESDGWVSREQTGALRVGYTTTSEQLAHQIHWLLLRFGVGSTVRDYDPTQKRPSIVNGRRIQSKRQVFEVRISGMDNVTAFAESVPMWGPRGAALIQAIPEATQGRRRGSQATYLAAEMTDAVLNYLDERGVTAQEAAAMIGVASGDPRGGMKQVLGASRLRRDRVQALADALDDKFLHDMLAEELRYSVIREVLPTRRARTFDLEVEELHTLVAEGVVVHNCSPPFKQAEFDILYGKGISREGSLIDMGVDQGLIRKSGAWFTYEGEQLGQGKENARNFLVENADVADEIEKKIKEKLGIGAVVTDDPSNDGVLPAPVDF
Briefly: Fluorescence Cell-Free Homogeneous Dose Retest to Identify Inhibitors of RecA-Intein Splicing Activity. [Related pubchem assays (depositor defined):AID2097, AID2223, AID489010, AID492950]. It counts as functional.

Another assay has as its system Vero. Briefly: Vero cell cytotoxicity, cytotoxicity control for flavivirus capping enzyme inhibitors (AID 588742). The format is functional. Particulars: Chlorocebus sabaeus.
The target of another assay is T4, Caspase-3 (Homo sapiens, UniProt P42574).
T4 sequence (P42574 whole entry): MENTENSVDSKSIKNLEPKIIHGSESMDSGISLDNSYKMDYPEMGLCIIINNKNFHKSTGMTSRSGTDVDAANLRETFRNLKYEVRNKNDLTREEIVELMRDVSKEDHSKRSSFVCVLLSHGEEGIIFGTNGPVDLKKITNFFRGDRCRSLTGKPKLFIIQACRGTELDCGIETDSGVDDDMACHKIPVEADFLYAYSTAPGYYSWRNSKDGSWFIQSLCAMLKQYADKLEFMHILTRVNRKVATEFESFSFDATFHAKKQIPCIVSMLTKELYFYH
Briefly: Dose-response confirmation of uHTS inhibitor hits of Sentrin-Specific Protease 8 in a Caspase-3 Fluorescence assay. The format is functional.

The target of assay [3] is T1, Sentrin-specific protease 8. The format is functional. The source holds these as a separate data set.
Assay [4] can be described thus: HEK293T cell cytotoxicity, dose response, cytotoxicity control for HIV Vif inhibitor project, cherry-picks (AID 652208). The format is functional, cell-based.
A short description of assay [5]: LGR2 antagonists, dose response, cell-based, HEK293, CRE-luciferase reporter, cherry pick, set 2 (AID 743343).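 Note: transfected cells were stimulated with diluted bursicon conditioned medium after compound addition.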 It counts as functional. Background: In a reporter assay the amount or activity of a reporter protein is the signal.
Assay [6] in a line: HepG2 cell cytotoxicity, dose response, cytotoxicity control, plate reader, cherry-pick, antagonist series (AID 743416). It counts as functional, cell-based.
A short description of assay [7]: MC4R antagonists, dose response, counter-screen for LGR2 antagonist project, cell-based, plate reader, cherry pick (AID 743444).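 Note: transfected HEK 293 cells stimulated with alpha-MSH peptide; potency of inhibitors of the alpha-MSH evoked signal.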 The format is functional. In general terms: A counterscreen serves to expose hits that act by an unwanted route or on another target.
Assay [8] is described as follows: HEK293 cell cytotoxicity, dose response, cytotoxicity control, plate reader, cherry-picked samples (AID 743446). It counts as functional, cell-based.
Assay [9] has as its target Beta-2 adrenergic receptor (Homo sapiens, UniProt P07550). Briefly: beta2AR agonists driving receptor internalization, dose response, cell-based, FAP fluorogen, flow cytometry, cherry pick 1 (AID 588763). It counts as functional. (In general: In flow cytometry, cells or beads pass a laser one at a time.)
The nature of assay [10]: A549 cell cytotoxicity, dose response, cytotoxicity control, plate reader, cherry-pick, antagonist series (AID 743412). The format is functional, cell-based.
Assay [11] can be described thus: Luminescence Cell-Based Dose Retest to Confirm Inhibitors of Cancer Stem Cells. [Related pubchem assays (depositor defined):AID2717, AID2721]. It counts as functional. Particulars: Homo sapiens.
Another assay relates to HeLa. Briefly: HeLa cell cytotoxicity, dose response, cytotoxicity control, ATP luminescence, cherry-pick samples (AID 687004). It counts as functional, cell-based. Particulars: Homo sapiens.
For the next assay, the target named is T5, Coagulation factor XII (Homo sapiens, UniProt P00748).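 Note: activated factor XIIa alpha cleaving a fluorogenic AMC peptide substrate; inhibitor potency from loss of enzyme activity.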
T5 sequence (P00748 whole entry): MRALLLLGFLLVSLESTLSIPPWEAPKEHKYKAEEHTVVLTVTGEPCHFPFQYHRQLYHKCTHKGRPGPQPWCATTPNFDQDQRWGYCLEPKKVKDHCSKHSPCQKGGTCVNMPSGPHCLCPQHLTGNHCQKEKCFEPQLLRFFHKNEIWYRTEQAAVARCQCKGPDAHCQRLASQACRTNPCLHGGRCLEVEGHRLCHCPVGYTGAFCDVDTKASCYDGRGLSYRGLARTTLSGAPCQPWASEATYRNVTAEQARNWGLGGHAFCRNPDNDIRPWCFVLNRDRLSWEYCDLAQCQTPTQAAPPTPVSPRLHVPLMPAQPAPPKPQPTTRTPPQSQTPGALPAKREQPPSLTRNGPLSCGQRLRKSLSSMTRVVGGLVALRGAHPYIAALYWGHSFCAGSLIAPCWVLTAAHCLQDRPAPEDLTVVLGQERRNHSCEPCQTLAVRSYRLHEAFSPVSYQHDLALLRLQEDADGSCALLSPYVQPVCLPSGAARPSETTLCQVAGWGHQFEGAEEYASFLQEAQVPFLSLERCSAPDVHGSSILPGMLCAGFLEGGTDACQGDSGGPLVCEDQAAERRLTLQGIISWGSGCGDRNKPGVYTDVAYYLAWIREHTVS
The format is functional.

The nature of assay [12]: cells. It counts as functional, cell-based.
Assay [13] has as its target Fructose-bisphosphate aldolase (Mycobacterium tuberculosis, UniProt P9WQA3). As to the kind of experiment: Fluorescence-based biochemical high throughput dose response assay for inhibitors of the fructose-bisphosphate aldolase (FBA) of M. tuberculosis. It counts as functional.
Assay [14] can be described thus: cells. It counts as functional, cell-based. The source holds these as a separate data set.
Assay [15] has as its system A-375. As to the kind of experiment: A375 melanoma cell viability reduction, dose response, counter-screen for MITF modulator project, cherry-pick samples, set 2 (AID 540335). The format is functional, cell-based. Particulars: Homo sapiens.
Assay [16] relates to A-375. Briefly: MITF: Counter assay: A375 proliferation Measured in Cell-Based System Using Plate Reader - 2084-03_Inhibitor_Dose_DryPowder_Activity. [Related pubchem assays (depositor defined):AID488944]. It counts as functional. Particulars: Homo sapiens.
The target in assay [17] is Botulinum neurotoxin type F (Clostridium botulinum, UniProt P30996). As to the kind of experiment: High-throughput multiplex microsphere dose response for inhibitors of toxin protease, specifically Botulinum neurotoxin light chain F protease, compounds from Cherry Pick 02. The format is functional. The conditions noted are these: read-out: EC50_MICROM.

Structures are written as SMILES. Activity calls are given as the source filed them. Where only a bound is given, the exact number is not on record here.

Sequence of Fructose-bisphosphate aldolase (P9WQA3 whole entry): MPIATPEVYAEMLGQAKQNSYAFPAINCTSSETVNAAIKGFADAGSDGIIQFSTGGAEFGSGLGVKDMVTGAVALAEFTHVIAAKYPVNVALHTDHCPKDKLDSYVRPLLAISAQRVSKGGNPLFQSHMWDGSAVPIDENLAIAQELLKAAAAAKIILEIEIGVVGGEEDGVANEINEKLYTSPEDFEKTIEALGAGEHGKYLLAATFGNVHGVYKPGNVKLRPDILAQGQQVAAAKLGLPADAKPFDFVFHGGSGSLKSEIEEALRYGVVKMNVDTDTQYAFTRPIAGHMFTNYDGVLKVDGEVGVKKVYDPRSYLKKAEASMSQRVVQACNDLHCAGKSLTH
Sequence of Botulinum neurotoxin type F (P30996 1-436 limits assumed): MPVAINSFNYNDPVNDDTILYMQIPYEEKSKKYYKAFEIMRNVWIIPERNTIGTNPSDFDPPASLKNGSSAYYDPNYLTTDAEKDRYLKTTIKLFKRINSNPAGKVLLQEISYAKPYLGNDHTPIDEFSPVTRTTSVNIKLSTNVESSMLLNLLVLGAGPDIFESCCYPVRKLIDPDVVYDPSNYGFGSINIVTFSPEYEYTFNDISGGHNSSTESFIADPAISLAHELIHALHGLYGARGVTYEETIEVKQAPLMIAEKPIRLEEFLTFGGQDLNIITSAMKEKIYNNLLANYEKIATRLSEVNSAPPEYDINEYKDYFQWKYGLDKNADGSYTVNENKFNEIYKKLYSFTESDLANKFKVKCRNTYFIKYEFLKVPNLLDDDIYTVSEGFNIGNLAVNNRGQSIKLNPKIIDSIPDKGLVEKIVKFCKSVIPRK
Sequence of Beta-2 adrenergic receptor (P07550 whole entry): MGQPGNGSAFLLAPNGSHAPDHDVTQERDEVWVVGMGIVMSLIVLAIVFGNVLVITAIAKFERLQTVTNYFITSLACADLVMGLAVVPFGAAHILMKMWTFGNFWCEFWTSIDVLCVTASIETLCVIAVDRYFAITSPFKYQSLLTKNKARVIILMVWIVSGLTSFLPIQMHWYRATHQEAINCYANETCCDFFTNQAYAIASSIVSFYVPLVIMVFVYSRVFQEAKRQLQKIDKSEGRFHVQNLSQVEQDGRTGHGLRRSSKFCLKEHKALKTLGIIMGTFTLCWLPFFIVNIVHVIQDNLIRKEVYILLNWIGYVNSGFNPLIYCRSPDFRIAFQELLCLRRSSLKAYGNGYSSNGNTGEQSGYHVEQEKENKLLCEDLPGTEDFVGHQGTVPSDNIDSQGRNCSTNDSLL

A word on the IC50: it is the concentration needed to halve the response being measured. The AC50 is the concentration at which the activity in the assay is half-maximal. Broadly, the CC50 is the concentration at which the toxic effect on the cells reaches its halfway point. As to `COc1ccc(/C=N/NC(=O)c2nn(-c3ccc(Cl)cc3)c(=O)c3c(N)scc23)cc1`, the IC50 is 0.967 µM (active) in [1], 11.9 µM (active) on Caspase-3 and 2.03 µM (active) in assay [3]. The AC50 in assay [2] is > 380 µM (inactive). Moreover, on Protein RecA, the EC50 is 4.62 µM (active). Moreover, the CC50 in the assay on Vero is 22 µM (active).

Turning to `Cn1nnnc1Sc1ncnc2scc(-c3ccc(Cl)cc3)c12`, the AC50 in [4] is 11.8 µM (active); in assay [5], 14.3 µM (active); in assay [6], 12.1 µM (active); in assay [7] it was 23.2 µM (active); in [8], 13.9 µM (active); in assay [10], 7.88 µM (active). In addition, in assay [11], the AC50 is 3.48 µM (active). In [9], the EC50 was 8.38 µM (active).

Regarding `Cc1ccc(CSc2ncnc3c2cnn3-c2ccc(C)cc2)cc1`, the AC50 with HeLa was 48.5 µM (active). Also, the IC50 on Coagulation factor XII was > 50 µM (inactive).

For `Cc1ccc(Nc2nnc(-c3ccccc3N)o2)cc1C`, the EC50 in “cells [12]” is > 350 µM (not active); in “cells [14]”, 7.3 µM (active). Moreover, the IC50 in assay [13] was 1.45 µM (active). Moreover, the AC50 in the assay with A-375 [15] and in the assay on A-375 [16] was > 35 µM (active) in each case.

In the case of `COc1cccc(C(=O)OCC(=O)c2c[nH]c3ccccc23)c1O`, the EC50 in assay [17] is > 20 µM (inactive).

Values taken from ChEMBL document CHEMBL1201862, “PubChem BioAssay data set” (2004).
